# Data: ChEMBL document CHEMBL6178021, “Optimization of Tambjamines Active against Multiple Stages of Malaria Parasites” (J Med Chem, 2025)
# Key:
# Plasmodium falciparum [1] = test: microbe, parasite or virus in culture; conditions: Dd2, 72 h
# Description: Antiplasmodial activity against asexual blood-stage Plasmodium falciparum Dd2 using 2% haematocrit and 0.2% parasitemia assessed as reduction in fluorescence measured after 72 hrs by Malaria SYBR Green I-based Fluorescence (MSF) assay
# [2] = Metabolic stability in mouse liver microsomes assessed as half life measured up to 60 mins by LC/MS analysis; assay type: ADME, Microsome
# HepG2 = test: Cytotoxicity against human HepG2 cells assessed as cell viability measured after 48 hrs by MTT assay; assay type: toxicity, cell-based; conditions: hepg2
# MDR1 (human) [3] = test: Apparent permeability across basolateral to apical side in MDCK transfected with human MDR1 cells incubated for 1 hr by LC-MS analysis; conditions: dog, MDCK-MDR1
# [4] = Metabolic stability in human liver microsomes assessed as half life measured up to 60 mins by LC/MS analysis; assay type: ADME, Microsome
# Plasmodium falciparum [5] = test: microbe, parasite or virus in culture; conditions: D6, 72 h
# Description: Antiplasmodial activity against asexual blood-stage Plasmodium falciparum D6 using 2% haematocrit and 0.2% parasitemia assessed as reduction in fluorescence measured after 72 hrs by Malaria SYBR Green I-based Fluorescence (MSF) assay
# in vitro [6] = conditions: human, liver microsomes
# Plasmodium yoelii = test: Antimalarial activity against erythrocytic Plasmodium yoelii MRA-428 infected in CF1 mouse assessed as reduction in parasitemia at 10 mg/kg, po once daily for 4 days measured on day 5; assay type: functional; parameters: scale not given: the % may be the effect or the level left; conditions: time 4 day
# in vitro [7] = conditions: mouse, liver microsomes
# [8] = Solubility of the compound in potassium phosphate buffer at pH 7.4 by UV-vis spectroscopy; conditions: buffer
# Plasmodium falciparum [9] = test: Antiplasmodial activity against asexual blood-stage Plasmodium falciparum Tm90-C2B using 2% haematocrit and 0.2% parasitemia assessed as reduction in fluorescence measured after 72 hrs by Malaria SYBR Green I-based Fluorescence (MSF) assay; assay type: functional, organism-based
# MDR1 (human) [10] = test: Apparent permeability across apical to basolateral side in MDCK transfected with human MDR1 cells incubated for 1 hr by LC-MS analysis; conditions: dog, MDCK-MDR1
Compound,IC50 (Plasmodium falciparum [1]) [nM],half-life [2] [min],IC50 (HepG2) [nM],Papp B→A at 1 h (MDR1 (human) [3]) [×10⁻⁶ cm/s],half-life [4] [min],IC50 (Plasmodium falciparum [5]) [nM],microsomal CLint at 1 h (in vitro [6]) [µL/min/mg],Activity (Plasmodium yoelii) [%],microsomal CLint at 1 h (in vitro [7]) [µL/min/mg],solubility [8] [µM],IC50 (Plasmodium falciparum [9]) [nM],Papp A→B at 1 h (MDR1 (human) [10]) [×10⁻⁶ cm/s]
CCC1=C(CC)/C(=C/NC2CCCCCC2)N=C1c1ccc(-c2ccc(OC)cc2)[nH]1,25.4,14.5,3400,0.013,8.44,19.4,164,4.62,96.1,45.7,16.6,0.045
C(/NC12C[C@H]3C[C@@H](C1)C[C@@H](C2)C3)=C1/N=C(c2ccc[nH]2)C(Oc2ccccc2)=C1Oc1ccccc1,787,–,–,–,–,617,–,–,–,–,456,–
CCC1=C(CC)/C(=C/NC23C[C@H]4C[C@@H](C2)C[C@@H](C3)C4)N=C1c1ccccc1OCCN(CC)CC,774,–,–,–,–,2070,–,–,–,–,1400,–
CCC1=C(CC)/C(=C/NC2CCCCCC2)N=C1c1ccn[nH]1,> 2500,–,–,–,–,> 2500,–,–,–,–,> 2500,–
C(/NC1CCCCC1)=C1/N=C(c2ccc[nH]2)C(Oc2ccccc2)=C1Oc1ccccc1,> 2500,–,–,–,–,> 2500,–,–,–,–,> 2500,–
CCc1c(C(=O)NC2CCCCC2)[nH]c(-c2ccc[nH]2)c1CC,> 2500,–,–,–,–,> 2500,–,–,–,–,> 2500,–
CCC1=C(CC)/C(=C/NC2CCCCC2)N=C1c1cc2cc(OC)ccc2[nH]1,> 2500,–,–,–,–,1080,–,–,–,–,2290,–
CCC1=C(CC)/C(=C/NC23C[C@H]4C[C@@H](C2)C[C@@H](C3)C4)N=C1c1ccc(C#N)[nH]1,> 2500,–,–,–,–,397,–,–,–,–,818,–
COc1ccc(OC2=C(Oc3ccc(OC)cc3)/C(=C/NC3CCCCC3)N=C2c2ccc[nH]2)cc1,1470,–,–,–,–,1220,–,–,–,–,1650,–
CCc1c(CNC23CC4CC(CC(C4)C2)C3)[nH]c(-c2ccc[nH]2)c1CC,753,–,–,–,–,–,–,–,–,–,912,–
CCC1=C(CC)/C(=C/NC2CCCCC2)N=C1c1ccn[nH]1,> 2500,–,–,–,–,> 2500,–,–,–,–,> 2500,–
CCC1=C(CC)/C(=C/NC2CCCCC2)N=C1c1ccccc1OC,> 2500,–,–,–,–,> 2500,–,–,–,–,> 2500,–
CCC1=C(CC)/C(=C/NC2CCCCC2)N=C1c1ccccc1OCCN(C)C,1380,–,–,–,–,> 2500,–,–,–,–,> 2500,–
CCC1=C(CC)/C(=C/NC2CCCCCCC2)N=C1c1ccn[nH]1,> 2500,–,–,–,–,> 2500,–,–,–,–,> 2500,–
CCC1=C(CC)/C(=C/NC2CCCCCCC2)N=C1c1ccc(-c2ccc(OC)cc2)[nH]1,22.5,> 60,4960,0.012,> 60,14.5,–,0,–,< 3.125,25.4,0.054
CCc1ccc(-c2[nH]c(C(=O)NC3CCCCC3)c(CC)c2CC)[nH]1,> 2500,–,–,–,–,> 2500,–,–,–,–,> 2500,–
CCC1=C(CC)/C(=C/NC2CCCCC2)N=C1c1ccc(-c2ccc(OC)cc2)[nH]1,41.1,> 60,6570,0.003,> 60,33.8,4.54,18.5,21.8,< 3.125,18,0.01
CCC1=C(CC)/C(=C/NC23C[C@H]4C[C@@H](C2)C[C@@H](C3)C4)N=C1c1ccccc1OC,> 2500,–,–,–,–,> 2500,–,–,–,–,> 2500,–
C(/NC1CCCCC1)=C1/N=C(c2ccc[nH]2)C(c2ccccc2)=C1c1ccccc1,1280,–,–,–,–,1520,–,–,–,–,1700,–
CCC1=C(CC)/C(=C/NC23C[C@H]4C[C@@H](C2)C[C@@H](C3)C4)N=C1c1ccccc1F,> 2500,–,–,–,–,> 2500,–,–,–,–,> 2500,–
CCC1=C(CC)/C(=C/NC2CCCCCCC2)N=C1c1ccc(Cl)[nH]1,99.1,> 60,12300,0.04,> 60,186,10.1,–,12.4,5.37,101,0.28
CCC1=C(CC)/C(=C/NC2CCCCC2)N=C1c1cc2ccccc2[nH]1,> 2500,–,–,–,–,> 2500,–,–,–,–,> 2500,–

Compound,IC50 (Plasmodium falciparum [1]) [nM],half-life [2] [min],IC50 (HepG2) [nM],Papp B→A at 1 h (MDR1 (human) [3]) [×10⁻⁶ cm/s],half-life [4] [min],IC50 (Plasmodium falciparum [5]) [nM],microsomal CLint at 1 h (in vitro [6]) [µL/min/mg],Activity (Plasmodium yoelii) [%],microsomal CLint at 1 h (in vitro [7]) [µL/min/mg],solubility [8] [µM],IC50 (Plasmodium falciparum [9]) [nM],Papp A→B at 1 h (MDR1 (human) [10]) [×10⁻⁶ cm/s]
CCC1=C(CC)/C(=C/NC2CCCCCC2)N=C1c1ccc(C#N)[nH]1,> 2500,–,–,–,–,> 2500,–,–,–,–,> 2500,–
COc1ccc(OC2=C(Oc3ccc(OC)cc3)/C(=C/NC3CCCCCC3)N=C2c2ccc[nH]2)cc1,1740,–,–,–,–,1490,–,–,–,–,2170,–
CCC1=C(CC)/C(=C/NC2CCCCCCC2)N=C1c1ccc(-c2ccccc2)[nH]1,48.2,52.2,8960,0.002,32.9,39,42.1,37.4,26.5,4.62,65.5,0.004
C(/NC1CCCCCC1)=C1/N=C(c2ccc[nH]2)C(Oc2ccccc2)=C1Oc1ccccc1,> 2500,–,–,–,–,> 2500,–,–,–,–,> 2500,–
C(/NC12C[C@H]3C[C@@H](C1)C[C@@H](C2)C3)=C1/N=C(c2ccc[nH]2)C(c2ccccc2)=C1c1ccccc1,359,–,–,–,–,412,–,–,–,–,351,–
COc1ccc(C2=C(c3ccc(OC)cc3)/C(=C/NC3CCCCCC3)N=C2c2ccc[nH]2)cc1,330,–,–,–,–,–,–,–,–,–,131,–
CCC1=C(CC)/C(=C/NC2CCCCC2)N=C1c1ccccc1F,> 2500,–,–,–,–,> 2500,–,–,–,–,> 2500,–
CCC1=C(CC)/C(=C/NC23C[C@H]4C[C@@H](C2)C[C@@H](C3)C4)N=C1c1ccn[nH]1,> 2500,–,–,–,–,> 2500,–,–,–,–,> 2500,–
CCC1=C(CC)/C(=C/NC2CCCCC2)N=C1c1ccc(-c2ccccc2)[nH]1,27.5,> 60,4730,0.003,> 60,24.8,15.9,0,17.6,< 3.125,13.8,0.012
C(/NC1CCCCCC1)=C1/N=C(c2ccc[nH]2)C(c2ccccc2)=C1c1ccccc1,1000,–,–,–,–,–,–,–,–,–,2110,–
COc1ccc(C2=C(c3ccc(OC)cc3)/C(=C/NC3CCCCC3)N=C2c2ccc[nH]2)cc1,343,–,–,–,–,–,–,–,–,–,187,–
CCC1=C(CC)/C(=C/NC23C[C@H]4C[C@@H](C2)C[C@@H](C3)C4)N=C1c1ccccc1OCCN(C)C,2440,–,–,–,–,> 2500,–,–,–,–,1730,–
CCc1ccc(-c2[nH]c(C(=O)NC34C[C@H]5C[C@@H](C3)C[C@@H](C4)C5)c(CC)c2CC)[nH]1,> 2500,–,–,–,–,> 2500,–,–,–,–,> 2500,–
COc1ccc(OC2=C(Oc3ccc(OC)cc3)/C(=C/NC34C[C@H]5C[C@@H](C3)C[C@@H](C4)C5)N=C2c2ccc[nH]2)cc1,113,–,–,–,–,228,–,–,–,–,184,–
CCC1=C(CC)/C(=C/NC2CCCCCCC2)N=C1c1ccc(Cc2ccc(OC)cc2)[nH]1,10.8,> 60,4310,0.12,> 60,–,–,0,–,< 3.125,13,0.074
CCC1=C(CC)/C(=C/NC2CCCCC2)N=C1c1ccccc1OCCN(CC)CC,757,–,–,–,–,> 2500,–,–,–,–,1060,–
CCC1=C(CC)/C(=C/NC2CCCCCC2)N=C1c1ccc(-c2ccccc2)[nH]1,30.2,12.1,5640,0.002,22.5,–,61.5,10.5,115,13.1,19.8,–
CCc1c(C(=O)NC2CCCCC2)[nH]c(-c2ccc(C)[nH]2)c1CC,> 2500,–,–,–,–,> 2500,–,–,–,–,> 2500,–
CCC1=C(CC)/C(=C/NC2CCCCC2)N=C1c1ccc(C#N)[nH]1,> 2500,–,–,–,–,1600,–,–,–,–,> 2500,–
CCC1=C(CC)/C(=C/NC2CCCCCCC2)N=C1c1ccc(C#N)[nH]1,> 2500,–,–,–,–,> 2500,–,–,–,–,> 2500,–
CCC1=C(CC)/C(=C/NC2CCCCC2)N=C1c1ccccc1O,> 2500,–,–,–,–,> 2500,–,–,–,–,> 2500,–
CCc1c(C(=O)NC23C[C@H]4C[C@@H](C2)C[C@@H](C3)C4)[nH]c(-c2ccc[nH]2)c1CC,> 2500,–,–,–,–,> 2500,–,–,–,–,> 2500,–
